Structures are written as SMILES.

The source of these data is patent publication US20220175862A1, “CO-ADMINISTRATION COMPOSITION FOR PREVENTING OR TREATING HYPERCHOLESTEROLEMIA, CONTAINING BALLOON-FLOWER EXTRACT OR PLATYCODIN D DERIVED THEREFROM AS ACTIVE INGREDIENT” (University-Industry Cooperation Group of Kyung Hee …, priority 2019, published 2022).

Data set [1] relates to LDLR expression in HepG2 cells. Nature of the data set: LDLR protein expression by Western blot. It is filed as cell-based. Conditions: 24 h. How it is done: (§1) Cells were treated with PD and PG for 24 h. Proteins were separated on 10% SDS-PAGE and transferred to nitrocellulose membranes. The membranes were incubated overnight at 4° C. For reference, anti-LDLR, Mylip/IDOL and LXRα were purchased from Abcam (Cambridge, UK), and anti-GAPDH was purchased from Cell Signaling (MA, USA). Further, anti-PCSK9 was purchased from Proteintech (Chicago. USA). The blots were then incubated with HRP-conjugated secondary antibody for 1 h at room temperature and measured using a Pierce ECL Western Blotting Substrate (Thermo Scientific, MA, USA).
There is a report that LDLR mediates the uptake of LDL-induced cholesterol from plasma, lowering blood cholesterol levels. Therefore, it was examined whether PG and PD upregulate LDLR expression in HepG2 cells.
Generally, statins are widely used for lowering blood levels of LDL-C, because they upregulate hepatic LDLR expression and enhance the uptake of LDL-C in the blood. To investigate whether PG and PD have a synergistic effect with statins on LDLR expression, HepG2 cells were treated with PG or PD together with simvastatin for 24 h, and then the expression levels of LDLR were examined by Western blotting.

In another data set the test system is IDOL mRNA in HepG2 cells. Put plainly: IDOL mRNA expression by RT-PCR. The format is cell-based. How it is done: (§2) Cells were dispensed in a 6-well plate, and treated with PD or PG for 24 h, and then total RNA was extracted using an R&A-BLUE Total RNA extraction kit (iNtRON Biotechnology, Inc., Korea). Next, complementary DNA (cDNA) was synthesized from 1 μg of RNA using a PrimeScript 1 st strand cDNA Synthesis Kit (Takara Biotechnology, Dalian. Liaoning, China). RT-PCR was performed with a Maxime PCR PreMix Kit (i-StarTaq) (iNtRON Biotechnology, Inc., Korea). Sequences of primers used herein are as in Table 1, and GAPDH was used as an internal control.
To examine whether PD suppresses IDOL mRNA expression, co-treatment of T0901317 (LXR agonist) and PD was performed for 24 h. The LXR is a transcription factor that activates a target gene involved in lipid and cholesterol homeostasis, and IDOL is a representative target gene of LXR. In addition. T0901317 increases the expression of IDOL by binding to LXR.

Another data set deals with LDLR mRNA in HepG2 cells. Put plainly: LDLR mRNA expression by RT-PCR. The format is cell-based. The note with it: PD 1 μM, 2.5 μM, 24 h. As for the experimental part:
as §2
To define molecular mechanisms underlying the increased LDLR expression by PG and PD treatment, the effects of PG and PD on expression of genes including IDOL and PCSK9, which are known to regulate LDLR protein levels, were first examined.

Data set [2] deals with cell surface LDLR in HepG2 cells. Nature of the data set: Cell surface LDLR analysis by flow cytometry. The note with it: 2.5 μM of PD, 24 h. The format is cell-based. As for the experimental part: Cells were treated as described above for 24 h, harvested, and then incubated at 37° C. for 30 min with anti-LDLR (Abcam, Cambridge, UK) diluted at 1:60 in PBS containing 5% BSA. The cells were washed with 1% BSA in PBS and incubated with Alexa Fluor 488-conjugated goat anti-rabbit IgG (Invitrogen, CA, USA) using a 1:250 dilution at 37° C. for 30 min. The cells were fixed with 0.5% PFA for 10 min, resuspended in PBS, and measured by flow cytometry (FACSCalibur, BD Biosciences, San Jose, Calif., USA). Data were analyzed using a CellQuest Pro software (BD Biosciences, USA).
Next, FACS analysis was performed to examine whether PG and PD increase LDLR expression on cell surface.

Data set [3] has as its system LDL uptake in HepG2 cells. Nature of the data set: LDL uptake assay (BODIPY-FL-LDL, confocal microscopy). The note with it: PD 2.5 μM 24 h, then BODIPY-LDL 1 h. The format is cell-based. How it is done: Cells were dispensed in a 24-well plate and treated as described above. After treatment with drugs, the culture medium was removed and replaced with 5 μg/mL of BODIPY-FL-LDL (Invitrogen, CA, USA) at 37° C. for 1 h. The cells were washed with PBS containing 0.3% BSA and fixed with 4% paraformaldehyde (PFA) for 10 min. Nuclei were stained with 1 μg/mL of DAPI in 2% BSA for 1 min and analyzed using confocal microscopy.
Then, confocal microscopy was performed.

The next data set deals with LXRα. Put plainly: LXRα protein expression by Western blot. Conditions: PD 1 μM, 2.5 μM, 5 μM, 24 h. It is filed as cell-based. How it is done:
as §1

In a further data set the test system is PCSK9. Nature of the data set: PCSK9 Western blot. The format is cell-based. The note with it: 24 h, indicated concentrations. As for the experimental part:
as §1

Data set [4] deals with hypercholesterolemia-induced rat. The note with it: cited from earlier work.
A further data set deals with HepG2 cells. Put plainly: Cell viability assay (WST). It is filed as cell-based. Conditions: 24 h. As for the experimental part:
Cells were dispensed in a 96-well plate and treated with PG (10 μg/mL, 50 μg/mL, 100 μg/mL, 250 μg/mL, 500 μg/mL) or PD (1 μM, 2.5 μM, 5 μM) for 24 h. After incubation, a WST solution (Daeillab Service, Co., Seoul, Korea) was added to each well and further incubated for 2 h. Next, water-soluble formazan in the medium was measured at 450 nm using an ELISA reader (Molecular Devices, Palo Alto, Calif.).
To investigate whether PG and PD display cytotoxic effects on HepG2 cells, cell viability was examined by WST1 assay following treatment with different concentrations of PG (10 μg/mL, 50 μg/mL, 100 µg/mL, 250 μg/mL, 500 μg/mL) or PD (1 μM, 2.5 μM, 5 μM). […] However, when high concentrations of 500 μg/mL of PG and 5 μM of PD were treated, cell viability was measured as 85% and 86%, respectively.

In the next data set the test system is LDLR protein. Nature of the data set: LDLR protein stability after cycloheximide (CHX) treatment, Western blot. It is filed as cell-based. Conditions: PD 2.5 μM 24 h, then 100 μg/mL CHX. As for the experimental part:
as §1
Considering that IDOL mRNA is decreased upon PG and PD treatment, it could be inferred that PG and PD are able to enhance LDLR protein stability. Therefore, LDLR protein levels remaining after treatment with cycloheximide (CHX) which blocks new protein synthesis were examined.

As to `CCC(C)(C)C(=O)O[C@H]1C[C@@H](C)C=C2C=C[C@H](C)[C@H](CC[C@@H]3C[C@@H](O)CC(=O)O3)[C@H]21` [simvastatin, reference compound], in [1] (simvastatin 1 μM alone, HepG2), the “increase in hepatic LDLR levels vs untreated control cells” value is “approximately 2.2 fold”.

Turning to `O=S(=O)(c1ccccc1)N(CC(F)(F)F)c1ccc(C(O)(C(F)(F)F)C(F)(F)F)cc1` [T0901317, reference compound], in the data set with IDOL mRNA in HepG2 cells (T0901317 10 μM, 24 h), the “mRNA levels of IDOL gene” value is “increased”.

As to `C[C@@H]1O[C@@H](O[C@H]2[C@H](OC(=O)[C@]34CCC(C)(C)C[C@H]3C3=CC[C@@H]5[C@@]6(C)C[C@H](O)[C@H](O[C@@H]7O[C@H](CO)[C@@H](O)[C@H](O)[C@H]7O)C(CO)(CO)[C@@H]6CC[C@@]5(C)[C@]3(C)C[C@H]4O)OC[C@H](O)[C@@H]2O)[C@H](O)[C@H](O)[C@H]1O[C@@H]1OC[C@@H](O)[C@H](O[C@@H]2OC[C@](O)(CO)[C@H]2O)[C@H]1O` [PD, Platycodin D], the “mRNA levels of IDOL” value with IDOL mRNA in HepG2 cells (HepG2, 24 h) is “significantly decreased”. For the same compound, the “T0901317-induced increase of IDOL mRNA” value in the data set on IDOL mRNA in HepG2 cells (co-treatment PD 2.5 μM and T0901317 10 μM, 24 h) was “attenuated”. Besides, the “LDLR mRNA expression” value with LDLR mRNA in HepG2 cells is listed as “no significant effects”. Further, in [2], the “cell surface LDLR levels, as compared with a control” value came to 1.2±0.07 fold change. Besides, in data set [1] (HepG2 cells), the “LDLR expression (Western blot)” value was “induce LDLR expression in HepG2 cells in a dose-dependent manner”. Moreover, in [3], the “increase in the uptake of LDL particles vs untreated control cells” value was 1.7 fold. The LXR-α protein levels entry in the data set with LXRα is “did not change”. For the same compound, the “proteolytic process of PCSK9” value in the data set with PCSK9 is “do not affect”. Moreover, in data set [4], the “cholesterol in the body” value is “effect of lowering cholesterol”. Also, in the data set on HepG2 cells (5 μM of PD), the cell viability is recorded as 86%. The “cytotoxic effects on HepG2 cells” value in the data set on HepG2 cells (PD 1 μM to 2.5 μM) is recorded as “no significant cytotoxic effects”. The “LDLR protein stability after CHX, vs untreated cells” value with LDLR protein is “significantly stable”.
